Laboratory results taken from patent US4382765A, “Method of moisturizing the skin with carbamide acid esters” (Henkel Kommanditgesellschaft auf Aktien, priority 1977, dated 1983).

Columns and labels:
[1] = Determination of the equilibrium dampness; assay type: physicochemical; conditions: 24 hours at 23° C.; relative humidity at which neither expulsion nor retention of water is effected; lower is better
From the text: (§1) The favorable action of the compounds, which are to be used in accordance with the invention, with respect to their capacity for the absorption and retention of water, was established by means of the test methods described hereinafter. A process for determining the equilibrium dampness which is indicative of the water retention capacity, and the determination of the water retention, rehydration and elasticity of impregnated pig epidermis are described in these tests.
The substances (approximately 300 to 500 mg) to be tested were moistened with a defined quantity of water and were exposed for 24 hours at 23° C. to various relative atmospheric humidities (1%, 30%, 47%, 65%, 89% and 100% relative humidity). The quantity of water absorbed or desorbed was determined gravimetrically and plotted on a graph. The relative humidity at which neither expulsion nor retention of water is effected can be determined from the resultant curves. This value, which is designated as the "equilibrium dampness", is a measure of the water retention capacity of a substance. The lower the value, the more positive is the assessment of the product. Furthermore, the hygroscopicity of the substance can be read from the slope of the curve.

pig epidermis [2] = test: Water retention of impregnated pig epidermis; conditions: 24 hours, 23° C., soaked 2 h in 10% solution, improvement vs blank value (water only)
From the text: as §1
(§2) Immediately after the pigs have been killed, the skin bristles are cut off by means of a shearing machine (shearing head 0.1 mm). The pigs are soaked for approximately 3 to 5 minutes in warm water of 60° C., the epidermis is subsequently peeled off and stored at -20° C. until it is used.
(§3) Stamped out pieces of epidermis (1×2 cm) were soaked for two hours in a 10% solution of the test substance. Excess moisture was then removed under standardized conditions by means of a small press, and the pieces were dried for 24 hours, hanging freely between 2 clamps in a 100 ml Erlenmeyer flask at 23° C., both at 30% relative humidity and 50% relative humidity (set by mixtures of sulfuric acid and water). The drying out of the impregnated test pieces to X% of the initial weight was compared with the corresponding value of the epidermis which had been soaked only in water (blank value). In Table I, the improvement in the water retention and in the rehydration as compared with the blank value is given in Δ% H2 O. The deviations in each double test amounted to a maximum of ±2 absolute units. The test was repeated if greater deviations occurred. The rehydration was determined analogously by drying the pig epidermis, which had been impregnated and from which the excess moisture had been removed, for 24 hours at 30% relative humidity, and by subsequent incubation for 24 hours at 90% relative humidity.

pig epidermis [3] = test: Elasticity measurements made on the impregnated pig epidermis; conditions: 24 hours, soaked 2 h in 10% aqueous solution; for mm stretch with between 5 and 30 pound loading at 75% r.h.: blank value 0; for mm stretch with between 5 and 30 pound loading at 90% r.h.: blank value 0.3-0.5
Protocol: A process for determining the equilibrium dampness which is indicative of the water retention capacity, and the determination of the water retention, rehydration and elasticity of impregnated pig epidermis are described in these tests.
as §2
Stamped out pieces of pig epidermis (1×6 cm) were soaked for two hours in a 10% aqueous solution of the substance which was to be tested, and excess moisture was removed from these pieces under standarized conditions. […] The amount of stretch in mm, measured in the Hooke range at a load between 5 to 30 pund, was determined as a measure of the elasticity.

pig epidermis [4] = test: Rehydration of impregnated pig epidermis; conditions: dried 24 h at 30% r.h., then incubated 24 h at 90% r.h.; 10% solution; improvement vs blank value
From the text: as §1, §2, §3

Structure (SMILES) | Equilibrium dampness [1] | Water Retention, % H2O after drying out at 30% r.h. (pig epidermis [2]) | Water Retention, % H2O after drying out at 50% r.h. (pig epidermis [2]) | mm stretch with between 5 and 30 pound loading at 75% r.h. (pig epidermis [3]) | mm stretch with between 5 and 30 pound loading at 90% r.h. (pig epidermis [3]) | Rehydration, Δ% water absorption at 90% r.h. (pig epidermis [4])
CC(O)CNC(=O)OCCO (stereo not drawn) [Product B, N-(2-hydroxypropyl)-carbamide acid-2-hydroxyethyl ester] | 58 % r.h. | 23 Δ% H2O | 22 Δ% H2O | 1.0 mm | 6.0 mm | 70 Δ% H2O
O=C1OCCN1CCO [Product I, N-(2-hydroxyethyl)-oxazolidine-2-one] | 68 % r.h. | 10 Δ% H2O | 16 Δ% H2O | 0.8 mm | 6.0 mm | 16 Δ% H2O
O=C(NCCO)OCCO [Product A, N-(2-hydroxyethyl)-carbamide acid-2-hydroxyethyl ester] | 58 % r.h. | 25 Δ% H2O | 26 Δ% H2O | 1.1 mm | 5.5 mm | 62 Δ% H2O
CC1(C)COC(=O)N1 [Product F, 4,4-Dimethyl-oxazolidine-2-one] | 83 % r.h. | 5 Δ% H2O | 7 Δ% H2O | 0.4 mm | 7.4 mm | 5 Δ% H2O
O=C1NC(CO)(CO)CO1 [Product H, 4,4-bis-hydroxymethyl-oxazolidine-2-one] | 76 % r.h. | 12 Δ% H2O | 15 Δ% H2O | 0.5 mm | 2.6 mm | 10 Δ% H2O
